Earlier results on four molecules are cited in paper PMC7884382, “A Phase 1 study of RO6870810, a novel bromodomain and extra-terminal protein inhibitor, in patients with NUT carcinoma, other solid tumours, or diffuse large B-cell lymphoma” (British Journal of Cancer, 2020).

In one series the test system is NC. The conditions noted are these: cited from earlier work.
The test system of a further series is serotonin receptors. Details: method as in PMID 20871596. Particulars: cited from earlier work.
The conditions of series [1]: cited from earlier work.
Another series deals with DLBCL. On the set-up: method as in PMID 27063978. Particulars: cited from earlier work.

The structures appear in SMILES notation.

Turning to `Cc1nnn(C)c1-c1cnc2c3ccc(C(C)(C)O)cc3n([C@H](c3ccccc3)C3CCOCC3)c2c1` [BMS-986158], the “Response in a patient with NC harbouring BRD3-NUT fusion” value in the series with NC is “minor but sustained regression”.
Turning to `Cc1sc2c(c1C)C(c1ccc(Cl)cc1)=N[C@@H](CC(=O)OC(C)(C)C)c1nnc(C)n1-2` [JQ1], the “Interaction with serotonin receptors” value in the series on serotonin receptors was “interaction with serotonin receptors”.
What is called half-life is how long it takes for the measured level to halve. As to `Cc1sc2c(c1C)C(c1ccc(Cl)cc1)=N[C@@H](CC(=O)Nc1ccc(O)cc1)c1nnc(C)n1-2` [birabresib], the half-life in series [1] was 4 to 5 h. In addition, in the series on DLBCL (among 22 patients with DLBCL), the CRs is on record as 2 and the PR is listed as 1. Further, the “Responders among patients with MYC-expressing DLBCL” value in the series on DLBCL was “one of five”.
Take `CCNC(=O)C[C@@H]1N=C(c2ccc(Cl)cc2)c2cc(OC)ccc2-n2c(C)nnc21` [molibresib]: the “Responses by NUT fusion among patients with NC” value in the series with NC was “PRs (confirmed and unconfirmed) were mostly observed in tumours with BRD3-NUT fusions”.
